Source: patent publication US20220340564A1, “ANTIBACTERIAL COMPOUNDS” (Janssen Sciences Ireland Unlimited Company, priority 2019, published 2022)

Each molecule was assayed on Mycobacterium tuberculosis strain EH4.0 expressing green-fluorescent protein (GFP) (assay: microbe, parasite or virus in culture). Conditions: 168 h, read-out: pIC50 (converted).
Type: cell-based
For `CCc1nc2ncc(F)cn2c1C(=O)NCc1ccc(N2CCN(S(=O)(=O)C(F)(F)F)C(OC)=N2)c(F)c1` [Compound 121], the IC50 was 12.9 nM.
For `CCc1nc2ccc(C#N)cn2c1C(=O)NCc1ccc(N2CCN(S(=O)(=O)C(F)(F)F)C(OC)=N2)cc1` [Compound 71], the IC50 was 166 nM.
`CCc1nc2ccc(C)cn2c1C(=O)NCc1ccc(N2CCN(S(=O)(=O)C(F)(F)F)C(C)=N2)cc1` [Compound 215] gave an IC50 of 0.912 nM.
`COc1ccn2nc(C)c(C(=O)NCc3ccc(N4CCN(S(=O)(=O)C(F)(F)F)C=N4)cc3)c2c1` [Compound 14] gave an IC50 of 6.31 nM.
Work on `Cc1cn2c(C(=O)NCc3ccc(N4CCN(S(=O)(=O)C(F)(F)F)C=N4)c(F)c3)c(C(F)(F)F)nc2s1` [Compound 136] yielded an IC50 of 6.31 nM.
For `CCc1nc2c(F)cc(Cl)cn2c1C(=O)NCc1ccc(N2CCN(S(=O)(=O)C(F)(F)F)C(OC)=N2)c(F)c1` [Compound 210], the IC50 was 3.02 nM.
Molecule `O=C(NCc1ccc(N2CCN(S(=O)(=O)C(F)(F)F)C=N2)c(F)c1)c1c(C(F)(F)F)nc2ccc(Cl)cn12` [Compound 124] has an IC50 of 10 nM.
`CCc1nc2c(C)cc(C)cn2c1C(=O)NCc1cnc(N2CCN(S(=O)(=O)C(F)(F)F)C=N2)c(F)c1` [Compound 183] was tested, and the IC50 was 200 nM.
In the case of `CCc1nc2ccc(OC)cn2c1C(=O)NCc1ccc(N2CCN(S(=O)(=O)C(F)(F)F)C=N2)cc1` [Compound 42], the IC50 is reported as 6.31 nM.
For `CCc1nc2cc(Cl)c(OC)cn2c1C(=O)NCc1ccc(N2CCN(S(=O)(=O)C(F)(F)F)C=N2)cc1` [Compound 67], the IC50 was 200 nM.
For `CCc1nc2ncc(Cl)cn2c1C(=O)NCc1ccc(N2CCN(C(C)=O)C=N2)cc1` [Compound 24], the IC50 was 15.8 nM.
`CCc1nc2ccc(Cl)cn2c1C(=O)NCc1ccc(N2CCN(c3cccs3)C(OC)=N2)cc1` [Compound 120] showed an IC50 of 12.9 nM.
`CCc1nc2ccc(Cl)cn2c1C(=O)NCc1ccc(N2CCN(C)C=N2)cc1` [Compound 15] gave an IC50 of 25.1 nM.
In the case of `CCc1nc2c(Cl)cc(Cl)cn2c1C(=O)NCc1ccc(N2CCN(S(=O)(=O)C(F)(F)F)C=N2)c(F)c1` [Compound 87], the IC50 is reported as 89.1 nM.
Work on `CCc1nc2nc(NC)c(Cl)cn2c1C(=O)NCc1ccc(N2CCN(S(=O)(=O)C(F)(F)F)C=N2)c(F)c1` [Compound 83] yielded an IC50 of 372 nM.
`CCc1nc2ccc(Cl)cn2c1C(=O)NCc1cnc(N2CCN(S(=O)(=O)C(F)(F)F)C=N2)c(F)c1` [Compound 142] showed an IC50 of 4.68 nM.
In the case of `CCc1nc2cccc(Cl)n2c1C(=O)NCc1ccc(N2CCN(S(=O)(=O)C(F)(F)F)C(OC)=N2)cc1` [Compound 70], the IC50 is reported as at least 501 nM.
Work on `CCc1nc2cc(OC)ccn2c1C(=O)NCc1ccc(N2CCN(S(=O)(=O)C(F)(F)F)C(OC)=N2)cc1` [Compound 52] yielded an IC50 of 41.7 nM.
`CCc1nc2nc(N)c(F)cn2c1C(=O)NCc1ccc(N2CCN(S(=O)(=O)C(F)(F)F)C=N2)c(F)c1` [Compound 170] showed an IC50 of 316 nM.
`CCc1nc2ccc(C#N)cn2c1C(=O)NCc1ccc(N2CCN(S(=O)(=O)C(F)(F)F)C=N2)cc1` [Compound 72] gave an IC50 of 158 nM.
`CCc1nc2ccc(F)cn2c1C(=O)NCc1ccc(N2CCN(S(=O)(=O)C(F)(F)F)C(OC)=N2)c(F)c1` [Compound 204] gave an IC50 of 4.47 nM.
`O=C(NCc1ccc(N2CCN(S(=O)(=O)C(F)(F)F)C=N2)c(F)c1)c1c(C(F)(F)F)nc2c(F)cccn12` [Compound 186] was tested, and the IC50 was 3.63 nM.
In the case of `CCc1nc2cc(C)c(Cl)cn2c1C(=O)NCc1ccc(N2CCN(S(=O)(=O)C(F)(F)F)C(OC)=N2)c(F)c1` [Compound 132], the IC50 is reported as 8.32 nM.
`CCc1nc2ncc(Cl)cn2c1C(=O)NCc1ccc(N2CCN(S(=O)(=O)C(F)(F)F)C(OC)=N2)cc1` [Compound 27] was tested, and the IC50 was 2 nM.
In the case of `CCc1nc2ccc(Cl)cn2c1C(=O)NCc1cc(F)c(N2CCN(S(=O)(=O)C(F)(F)F)C=N2)c(F)c1` [Compound 35], the IC50 is reported as 5.01 nM.
`CCc1nc2nc(C)c(Cl)cn2c1C(=O)NCc1ccc(N2CCNC=N2)c(F)c1` [Compound 199] gave an IC50 of over 500 nM.
`COC1=NN(c2ccc(CNC(=O)c3c(C(F)F)nc4ccccn34)cc2F)CCN1S(=O)(=O)C(F)(F)F` [Compound 160] was tested, and the IC50 was 1.2 nM.
Molecule `O=C(NCc1cnc(N2CCN(S(=O)(=O)C(F)(F)F)C=N2)c(F)c1)c1c(C(F)(F)F)nc2c(F)cccn12` [Compound 182] has an IC50 of 31.6 nM.
`CCc1nc2ncc(F)cn2c1C(=O)NCc1ccc(N2CCN(S(=O)(=O)C(F)(F)F)C=N2)cc1` [Compound 10] gave an IC50 of 63.1 nM.
`CCc1nc2ncc(C(C)=O)cn2c1C(=O)NCc1ccc(N2CCN(S(=O)(=O)C(F)(F)F)C=N2)cc1` [Compound 62] showed an IC50 of at least 501 nM.
In the case of `CCc1nc2c(N)cc(C)cn2c1C(=O)NCc1ccc(N2CCN(S(=O)(=O)C(F)(F)F)C=N2)c(F)c1` [Compound 212], the IC50 is reported as 25.7 nM.
With `CCc1nc2ccc(Cl)cn2c1C(=O)NCc1ccc(N2C=NN(C)CC2)cc1` [Compound 4] the IC50 was 39.8 nM.
`CCc1nc2ncc(F)cn2c1C(=O)NCc1ccc(N2CCN(S(=O)(=O)C(F)(F)F)C=N2)c(F)c1` [Compound 130] gave an IC50 of 8.71 nM.
`CCc1nc2c(F)cc(C)cn2c1C(=O)NCc1ccc(N2CCNC=N2)c(F)c1` [Compound 198] was tested, and the IC50 was 93.3 nM.
`CCc1nc2c(F)cc(C)cn2c1C(=O)NCc1cnc(N2CCNC=N2)c(F)c1` [Compound 187] showed an IC50 of at least 501 nM.
`CCc1nc2cc(OC)c(Cl)cn2c1C(=O)NCc1ccc(N2CCN(S(=O)(=O)C(F)(F)F)C=N2)cc1` [Compound 64] gave an IC50 of 316 nM.
Molecule `O=C(NCc1ccc(N2CCN(S(=O)(=O)C(F)(F)F)C=N2)c(F)c1)c1c(Br)nc2n1CCC2` [Compound 99] has an IC50 of 32.4 nM.
`CCc1nc2c(Cl)cc(C)cn2c1C(=O)NCc1ccc(N2CCN(S(=O)(=O)C(F)(F)F)C=N2)c(F)c1` [Compound 102] showed an IC50 of 29.5 nM.
In the case of `Cc1ccc2nc(C(F)(F)F)c(C(=O)NCc3cnc(N4CCN(S(=O)(=O)C(F)(F)F)C=N4)c(F)c3)n2c1` [Compound 176], the IC50 is reported as 15.8 nM.
For `CCc1nc2ccc(F)cn2c1C(=O)NCc1ccc(N2CCN(S(=O)(=O)C(F)(F)F)C=N2)c(F)c1` [Compound 156], the IC50 was 1.38 nM.
`CCc1nc2cc(Cl)c(OC)cn2c1C(=O)NCc1ccc(N2CCN(S(=O)(=O)C(F)(F)F)C(OC)=N2)cc1` [Compound 45] gave an IC50 of 39.8 nM.
Work on `CCc1nc2c(C)cc(F)cn2c1C(=O)NCc1ccc(N2CCN(S(=O)(=O)C(F)(F)F)C=N2)c(F)c1` [Compound 89] yielded an IC50 of 83.2 nM.
`CCc1nc2cc(F)c(Cl)cn2c1C(=O)NCc1ccc(N2CCN(S(=O)(=O)C(F)(F)F)C=N2)c(F)c1` [Compound 157] was tested, and the IC50 was 1.38 nM.
`CCc1nc2nc(OC)ccn2c1C(=O)NCc1ccc(N2CCN(S(=O)(=O)C(F)(F)F)C=N2)c(F)c1` [Compound 115] gave an IC50 of 15.8 nM.
`CCc1nc2c(C)cc(OC)cn2c1C(=O)NCc1ccc(N2CCN(S(=O)(=O)C(F)(F)F)C=N2)c(F)c1` [Compound 105] gave an IC50 of 27.5 nM.
`CCc1nc2cc(OC)c(Cl)cn2c1C(=O)NCc1ccc(N2CCN(S(=O)(=O)C(F)(F)F)C(OC)=N2)cc1` [Compound 68] gave an IC50 of at least 501 nM.
Work on `O=C(NCc1ccc(N2CCN(S(=O)(=O)C(F)(F)F)C=N2)c(F)c1)c1c(C(F)F)nc2ccccn12` [Compound 159] yielded an IC50 of 1.2 nM.
`CCc1nc2ncc(C(=O)NC)cn2c1C(=O)NCc1ccc(N2CCN(S(=O)(=O)C(F)(F)F)C=N2)cc1` [Compound 61] gave an IC50 of at least 501 nM.
For `CCc1nc2cc(OC)ccn2c1C(=O)NCc1ccc(N2CCN(S(=O)(=O)C(F)(F)F)C=N2)cc1` [Compound 51], the IC50 was 45.7 nM.
Molecule `Cc1cc(F)c2ncc(C(=O)NCc3cnc(N4CCN(S(=O)(=O)C(F)(F)F)C=N4)c(F)c3)n2c1` [Compound 178] has an IC50 of 200 nM.
In the case of `CCc1nc2ccc(N3CCCC3)cn2c1C(=O)NCc1ccc(N2CCN(S(=O)(=O)C(F)(F)F)C=N2)cc1` [Compound 65], the IC50 is reported as at least 501 nM.
`Cc1ccc2nc(C(F)(F)F)c(C(=O)NCc3ccc(N4CCN(S(=O)(=O)C(F)(F)F)C=N4)c(F)c3)n2c1` [Compound 175] gave an IC50 of 1.58 nM.
`CCc1nc2ccc(Cl)cn2c1C(=O)NCc1ccc(N2CCN(S(=O)(=O)C(F)(F)F)C(OC)=N2)c(F)c1` [Compound 37] was tested, and the IC50 was 3.98 nM.
`CCc1nc2cc(C)c(Cl)cn2c1C(=O)NCc1ccc(N2CCN(S(=O)(=O)C(F)(F)F)C=N2)cc1` [Compound 107] was tested, and the IC50 was 24 nM.
Molecule `CCc1nc2ccc(CCCOC)cn2c1C(=O)NCc1ccc(N2CCN(S(=O)(=O)C(F)(F)F)C=N2)cc1` [Compound 63] has an IC50 of at least 501 nM.
`CCc1nc2cc(NC)c(Cl)cn2c1C(=O)NCc1ccc(N2CCN(S(=O)(=O)C(F)(F)F)C=N2)c(F)c1` [Compound 80] gave an IC50 of at least 501 nM.
`CCc1nc2ccc(Cl)cn2c1C(=O)NCc1ccc(N2CCNC=N2)cc1` [Compound 56] showed an IC50 of 158000 nM.
`CCc1nc2c(Cl)cccn2c1C(=O)NCc1ccc(N2CCN(S(=O)(=O)C(F)(F)F)C=N2)c(F)c1` [Compound 129] was tested, and the IC50 was 8.91 nM.
`CCc1nc2nc(N)c(Cl)cn2c1C(=O)NCc1ccc(N2CCN(S(=O)(=O)C(F)(F)F)C=N2)c(F)c1` [Compound 126] was tested, and the IC50 was 9.77 nM.
With `CCc1nc2nc(Cl)ccn2c1C(=O)NCc1ccc(N2CCN(S(=O)(=O)C(F)(F)F)C=N2)c(F)c1` [Compound 125] the IC50 was 9.77 nM.
For `O=C(NCc1ccc(N2CCN(S(=O)(=O)C(F)(F)F)C=N2)c(F)c1)c1c(C(F)(F)F)nc2cc(F)c(Cl)cn12` [Compound 114], the IC50 was 16.2 nM.
For `CCc1nc2cc(OC)c(Cl)cn2c1C(=O)NCc1ccc(N2CCN(S(=O)(=O)C(F)(F)F)C=N2)c(F)c1` [Compound 93], the IC50 was 49 nM.
Work on `O=C(NCc1ccc(N2CCN(S(=O)(=O)C(F)(F)F)C=N2)c(F)c1)c1c(C(F)(F)F)nc2n1CCCC2` [Compound 123] yielded an IC50 of 10.2 nM.
With `CCc1nc2cc(OC)ccn2c1C(=O)NCc1ccc(N2CCN(S(=O)(=O)C(F)(F)F)C(OC)=N2)c(F)c1` [Compound 75] the IC50 was 6.31 nM.
For `CCc1nc2ncc(C(=O)N(C)C)cn2c1C(=O)NCc1ccc(N2CCN(S(=O)(=O)C(F)(F)F)C=N2)cc1` [Compound 60], the IC50 was 200 nM.
`CCc1nc2nc3c(cn2c1C(=O)NCc1ccc(N2CCN(S(=O)(=O)C(F)(F)F)C=N2)c(F)c1)CCOC3` [Compound 169] showed an IC50 of 10 nM.
`CCc1nc2cc(OC)c(OC)cn2c1C(=O)NCc1ccc(N2CCN(S(=O)(=O)C(F)(F)F)C(OC)=N2)c(F)c1` [Compound 53] was tested, and the IC50 was 81.3 nM.
With `CCc1nc2nc(C)c(C)cn2c1C(=O)NCc1ccc(N2CCN(S(=O)(=O)C(F)(F)F)C(OC)=N2)c(F)c1` [Compound 211] the IC50 was 2.29 nM.
In the case of `CCc1nc2c(Br)cc(C)cn2c1C(=O)NCc1ccc(N2CCN(S(=O)(=O)C(F)(F)F)C=N2)c(F)c1` [Compound 166], the IC50 is reported as 245 nM.
